Here are results for 29 compounds from patent US11731986B2 (Sanford Burnham Prebys Medical Discovery Institute, priority 2017, dated 2023).

Structures are written as SMILES. pIC50: −log10 of the molar value. A value given as a limit tells only on which side of the number the result lay.

The target in this test is T1, human LMPTP-A (Homo sapiens, UniProt P24666).
T1 sequence (P24666 1-158): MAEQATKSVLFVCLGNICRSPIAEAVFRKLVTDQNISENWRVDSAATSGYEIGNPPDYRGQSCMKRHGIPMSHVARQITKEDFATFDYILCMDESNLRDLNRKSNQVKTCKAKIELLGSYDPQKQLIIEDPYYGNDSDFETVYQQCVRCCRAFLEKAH
Kind of test: Enzyme Assay of Inhibition of LMPTP-A (phosphatase assay, OMFP or pNPP substrate). To be noted: Bis-Tris pH 6.0, 37° C. The test is classed as biochemical. In a few lines: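 Buffer 50 mM Bis-Tris pH 6.0, 1 mM DTT, 0.01% Triton X-100, 37 °C; OMFP read continuously (485/525 nm) or pNPP stopped with NaOH, 405 nm. IC50 from concentration vs % activity. Selectivity: 40 μM compound with 0.4 mM OMFP or 5 mM pNPP; reversibility: 50 nM enzyme, 10 μM compound, 5 min, 100× dilution.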

The pIC50 is −log10 of the IC50, conventionally taken in molar units. Higher therefore signals a small IC50. Compound `CCN(CC)C(=O)c1ccc(-c2cc(NCCCN3CCCCC3)c3cnccc3n2)c(C(N)=O)c1` [N1,N1-diethyl-4-(4-((3-(piperidin-1-yl)propyl)amino)-1,6-naphthyridin-2-yl)isophthalamide] gave a pIC50 of 4.70 to 6.00.
For the compound `CCN(CC)C(=O)CCc1ccc(-c2cc(NC3CCN(C)CC3)c3cnccc3n2)cc1` [N,N-Diethyl-3-(4-(4-(1-methylpiperidin-4-ylamino)-1,6-naphthyridin-2-yl)phenyl)propanamide], the pIC50 is not below 6.00.
`CCN(CC)C(=O)c1ccc(-c2cc(NC3CCN(C)C3)c3cnccc3n2)cc1` (centres unmarked) [N,N-Diethyl-4-(4-(1-methylpyrrolidin-3-ylamino)-1,6-naphthyridin-2-yl)benzamide]: the pIC50 is 4.70 to 6.00.
`CCN(CC)C(=O)c1ccc(-c2cc(Nc3ccc(NCCOC)cc3)c3cnccc3n2)cc1` [N,N-Diethyl-4-(4-(4-(2-methoxyethylamino)phenylamino)-1,6-naphthyridin-2-yl)benzamide] showed a pIC50 of 4.70 to 6.00.
With `CCN(CC)C(=O)c1ccc(-c2cc(Nc3ccc(OC)cc3)c3cnccc3n2)cc1` [N,N-Diethyl-4-(4-(4-methoxyphenylamino)-1,6-naphthyridin-2-yl)benzamide] the figure was 4.70 to 6.00.
Regarding `CCN(CC)C(=O)c1ccc(-c2cc(NC3CCN(C)CC3)c3cnccc3n2)cc1` [N,N-Diethyl-4-(4-((1-methylpiperidin-4-yl)amino)-1,6-naphthyridin-2-yl)benzamide], the pIC50 is 4.70 to 6.00.
In turn, `CCN(CC)C(=O)c1ccc(-c2cc(NCCN3CCCCC3)c3cnccc3n2)cc1` [N,N-Diethyl-4-(4-((2-(piperidin-1-yl)ethyl)amino)-1,6-naphthyridin-2-yl)benzamide] showed a pIC50 of 4.70 to 6.00.
Consider `CCN(CC)C(=O)c1ccc(-c2cc(NCCCN3CCN(S(C)(=O)=O)CC3)c3cnccc3n2)cc1` [N,N-Diethyl-4-(4-((3-(4-(methylsulfonyl)piperazin-1-yl)propyl)amino)-1,6-naphthyridin-2-yl)benzamide], for which the pIC50 is 4.70 to 6.00.
For `CCN(CC)C(=O)c1ccc(-c2cc(NCCCN3CCNCC3)c3cnccc3n2)cc1` [N,N-Diethyl-4-(4-((3-(piperazin-1-yl)propyl)amino)-1,6-naphthyridin-2-yl)benzamide] the value was 4.70 to 6.00.
For `CCN(CC)C(=O)c1ccc(-c2cc(NCCCN3CCOCC3)c3cnccc3n2)cc1` [N,N-Diethyl-4-(4-((3-morpholinopropyl)amino)-1,6-naphthyridin-2-yl)benzamide] the value was 4.70 to 6.00; for `CCN(CC)C(=O)c1ccc(-c2cc(NC3CCNCC3)c3cnccc3n2)cc1` [N,N-Diethyl-4-(4-(piperidin-4-ylamino)-1,6-naphthyridin-2-yl)benzamide], 4.70 to 6.00; for `CCN(CC)C(=O)c1ccc(-c2cc(NCCCN3CCCCC3)c3cncc(C)c3n2)cc1` [N,N-Diethyl-4-(8-methyl-4-((3-(piperidin-1-yl)propyl)amino)-1,6-naphthyridin-2-yl)benzamide], not above 4.70.
As for `CCN(CC)C(=O)c1nc2ccc(-c3cc(NCCCN4CCCCC4)c4cnccc4n3)cc2o1` [N,N-Diethyl-6-(4-(3-(piperidin-1-yl)propylamino)-1,6-naphthyridin-2-yl)benzo[d]oxazole-2-carboxamide], the negative logarithm of the IC50 (pIC50) is 4.70 to 6.00.
In turn, `CCN(CC)C(=O)c1nc2ccc(-c3cc(NCCCN4CCCCC4)c4cnccc4n3)cc2s1` [N,N-Diethyl-6-(4-(3-(piperidin-1-yl)propylamino)-1,6-naphthyridin-2-yl)benzo[d]thiazole-2-carboxamide] gave a negative-log IC50 (pIC50) of 4.70 to 6.00.
With `CCN(CC)C(=O)COCc1ccc(-c2cc(NCCCN3CCCCC3)c3cnccc3n2)cc1` [N,N-diethyl-2-((4-(4-((3-(piperidin-1-yl)propyl)amino)-1,6-naphthyridin-2-yl)benzyl)oxy)acetamide] the figure was 4.70 to 6.00; with `CCN(CC)C(=O)CCOc1ccc(-c2cc(NCCCN3CCCCC3)c3cnccc3n2)cc1` [N,N-diethyl-3-(4-(4-((3-(piperidin-1-yl)propyl)amino)-1,6-naphthyridin-2-yl)phenoxy)propanamide], not above 4.70.
In the case of `CCN(CC)C(=O)c1ccc(-c2cc(NCCCN3CCCCC3)nc3ncccc23)cc1` [N,N-diethyl-4-(2-(3-(piperidin-1-yl)propylamino)-1,8-naphthyridin-4-yl)benzamide], the pIC50 was not above 4.70.
With `CCN(CC)C(=O)c1ccc(-c2cc(NCCN3CCN(S(C)(=O)=O)CC3)c3cnccc3n2)cc1` [N,N-diethyl-4-(4-(2-(4-(methylsulfonyl)piperazin-1-yl)ethylamino)-1,6-naphthyridin-2-yl)benzamide] the figure was 4.70 to 6.00; with `CCN(CC)C(=O)c1ccc(-c2cc(NCCN3CCN(C)CC3)c3cnccc3n2)cc1` [N,N-diethyl-4-(4-(2-(4-methylpiperazin-1-yl)ethylamino)-1,6-naphthyridin-2-yl)benzamide], 4.70 to 6.00.
With `CCN(CC)C(=O)c1ccc(-c2cc(NCCN3CCNCC3)c3cnccc3n2)cc1` [N,N-diethyl-4-(4-(2-(piperazin-1-yl)ethylamino)-1,6-naphthyridin-2-yl)benzamide] the figure was 4.70 to 6.00; with `CCN(CC)C(=O)c1ccc(-c2cc(NCCN3CCOCC3)c3cnccc3n2)cc1` [N,N-diethyl-4-(4-(2-morpholinoethylamino)-1,6-naphthyridin-2-yl)benzamide], 4.70 to 6.00; with `CCN(CC)C(=O)c1ccc(-c2cc(NCCCN3CCN(C)CC3)c3cnccc3n2)cc1` [N,N-diethyl-4-(4-(3-(4-methylpiperazin-1-yl)propylamino)-1,6-naphthyridin-2-yl)benzamide], 4.70 to 6.00.
With `CCN(CC)C(=O)c1ccc(-c2cc(NCCCN3CCCCC3)c3ncccc3n2)cc1` [N,N-diethyl-4-(4-(3-(piperidin-1-yl)propylamino)-1,5-naphthyridin-2-yl)benzamide] the figure was not above 4.70; with `CCN(CC)C(=O)c1ccc(-c2cc(NCCCN3CCCCC3)c3cnccc3n2)cc1` [N,N-diethyl-4-(4-(3-(piperidin-1-yl)propylamino)-1,6-naphthyridin-2-yl)benzamide], not below 6.00; with `CCN(CC)C(=O)c1ccc(-c2cc(NCCCN3CCCCC3)c3ccncc3n2)cc1` [N,N-diethyl-4-(4-(3-(piperidin-1-yl)propylamino)-1,7-naphthyridin-2-yl)benzamide], not above 4.70.
The compound `CCN(CC)C(=O)c1ccc(-c2cc(NCCCN3CCCCC3)c3cccnc3n2)cc1` [N,N-diethyl-4-(4-(3-(piperidin-1-yl)propylamino)-1,8-naphthyridin-2-yl)benzamide] showed a pIC50 not above 4.70.
`CCN(CC)C(=O)c1ccc(-c2cc(NCCCN3CCCCC3)c3cnccc3n2)c(C(F)(F)F)c1` [N,N-diethyl-4-(4-((3-(piperidin-1-yl)propyl)amino)-1,6-naphthyridin-2-yl)-3-(trifluoromethyl)benzamide] showed a pIC50 not below 6.00.
As to `CCN(CC)C(=O)c1ccc(-c2cc(NC3CCNC3)c3cnccc3n2)cc1` (centres unmarked) [N,N-diethyl-4-(4-(pyrrolidin-3-ylamino)-1,6-naphthyridin-2-yl)benzamide], the pIC50 is 4.70 to 6.00.
Compound `CCN(CC)C(=O)c1ccc(-c2cc(NC3CCOCC3)c3cnccc3n2)cc1` [N,N-diethyl-4-(4-(tetrahydro-2H-pyran-4-ylamino)-1,6-naphthyridin-2-yl)benzamide] showed a pIC50 of 4.70 to 6.00.
